According to article PMC11997985, “Synthesis and In Vitro Profiling of Psilocin Derivatives: Improved Stability and Synthetic Properties” (Journal of Medicinal Chemistry, 2025):
“And” between values parts separate entries of the source, which are not always exact repeats. Identical values can stand only once. “Also recorded” adds a separate entry of the source. Marks after values point to notes of the source that are not given here.

Key:
[1] = Metabolic stability in human microsomes; type: in vitro ADME; conditions: for Metabolic stability in human microsomes: 37 °C, 0.5 mg/mL protein, 1 μM compound, 1 mM NADPH; for Comment on microsome assay: Table S3
[2] = tested on: porcine liver esterase; assay: Stability in FaSSIF supplemented with esterase; conditions: for % prodrug remaining, measured after 1 min: after 1 min at 20 IU/mL; for predicted half-life: at 270 IU/mL; for predicted abs.: calculated remaining prodrug available for GI absorption, predicted level after 5 min at 270 IU/mL (% remaining prodrug); for half-life at 0.292 mM: pig, FaSSIF supplemented with porcine liver esterase (20 IU/mL)
[3] = Chemical stability in 1.0 M NaHCO3 and 1.0 M HCl
[4] = Co-factor experiment: microsome suspension with and without NADPH; type: in vitro ADME, human; conditions: for Co-factor experiment: degradation with and without addition of NADPH compared
Method: Therefore, additional experiments comparing stability with and without the addition of NADPH cofactor and a very short incubation period were performed (Tables S4 and S5). […] Due to the rapid observed degradation in microsomes, we decided to investigate the stability of five compounds in human plasma, aiming for a broad range of stabilities (Table 2, Table S6). It should be noted that esterase-labile compounds are notoriously difficult to study in microsomal stability studies.[36]
Table S3 Evaluation of metabolic stability in human microsomes
No. Metabolic stability Comment
4k <10/<10 Low retention in chromatography
8 <10/<10 Low retention in chromatography.
Table S4 Results from the modified microsome assay where degradation with and without the addition of NADPH was compared […]
4d Very low peak area for the first time point,
4e Very low peak area for the first time point,
4f Very low peak area for the first time point,
5 Very low peak area for the first time point,
8 No degradation without co -factor […]
metabolism by the microsomes (consisting mainly of cytochrome P450 enzymes) or if it was due to other factors, the compounds (with the exception of 4k) were incubated in the microsome suspension both with and without the addition of NADPH. Samples […]
(§1) were taken at three timepoints, and the degradation was compared to determine if it was dependent on NADPH. Compound 4k […]
(§2) without the addition of NADPH. […]
(§3) microsomes that need to be activated by a co -factor.
(§4) Table S5 Percent of peak area found in microsome suspension 15 seconds after the addition of NADPH in comparison with the same amount dissolved in H2O/EtOH
(§5) No. Area at 0.25 min. in Area in solution % found in microsomes/NADPH (125 nM) microsome
(§6) Comparison with compounds in solution. A comparison was made between the peak area of the compounds in solution with that obtained in the microsome suspension directly after the addition of NADPH (about 0.25 minutes) (Table S5). Before the addition of NADPH, the compounds are equilibrated in the microsome suspension for approximately five minutes. All compounds were prepared in solution by diluting a portion of the DMSO solutions with H2O/EtOH (75:25) to 125 nM (the final concentration of compounds for analysis in the microsome assay).
(§7) For the compounds where no results from the microsome assay could be reported due to low peak area (4d, 4e, 4f & 5), less than one percent of the expected peak area as compared with the area in solution was detected. […]
(§8) degrade rapidly before the addition of the co-factor after five minutes in incubation. For compounds 4g, 4h, 4i & 4j, which were […]
(§9) higher relative peak areas were found. […]
(§10) without NADPH was only found at 15% of the area seen in solution in the microsome suspension.

[5] = Stability in simulated stomach acid (0.10 M HCl); conditions: 0.10 M HCl (simulated stomach acid)
[6] = Solubility, screen method, phosphate buffer pH 7.4, 1% DMSO; type: physicochemical; conditions: phosphate buffer with 1% DMSO; 100 mM phosphate buffer pH 7.4, 1% DMSO; assay range 0.1 to 100 μM
[7] = Peak area in microsome suspension compared with compounds in solution; type: in vitro ADME, human; conditions: peak area 15 seconds after addition of NADPH versus same amount (125 nM) in H2O/EtOH
Method: as §1, §2, §3, §4, §5, §6, §7, §8, §9, §10

[8] = Photolytic degradation of psilocin salts; conditions: for % psilocin remaining: after 14 days
[9] = Forced degradation of psilocin salts, base (0.10 M NaOH); conditions: for half-life at 24 h, 2 mg/mL freebase psilocin: 0.10 M NaOH (base forced degradation)
[10] = Forced degradation of psilocin salts, oxidative (0.30% H2O2)
[11] = Thermal degradation of psilocin salts at 60 °C; conditions: for % psilocin remaining: after 6 days (143 h)
[12] = Forced degradation of psilocin salts, acid (1.0 M HCl); conditions: for half-life at 2 mg/mL freebase psilocin: 1.0 M HCl (acid forced degradation); for % psilocin remaining: after 24 h compared with first measuring point at 1 h, LCMS; for color: visual inspection after 24 h
[13] = General observations of psilocin salts in solid form in −18 °C freezer; conditions: for stability (solid form): over 3 weeks in −18 °C freezer, visual inspection and LCMS; for hygroscopic: visual inspection
[14] = 0.30% H2O2 (oxidative forced degradation), half-life, 0.30% H2O2, RT
[15] = 0.30% H2O2 (oxidative forced degradation), half-life, 0.30% H2O2

Compound | Metabolic stability in human microsomes [1] | Comment on microsome assay [1] | half-life at 24 h, 5 mM ([3]; 1.0 M NaHCO3) [h] | Co-factor experiment [4] | half-life at 5 mM [5] [h] | half-life at 336 h, 2 mg/mL freebase psilocin [8] [h] | % psilocin remaining ([8]; 12900 lx) [%] | half-life at 24 h, 2 mg/mL freebase psilocin [9] [h] | % psilocin remaining ([9]; 0.10 M NaOH, after 24 h) [%] | % psilocin remaining ([10]; 0.30% H2O2, after 24 h) [%] | % psilocin remaining [11] [%] | half-life at 2 mg/mL freebase psilocin [12] [h] | % psilocin remaining ([12]; 1.0 M HCl) [%] | color ([12]; 1.0 M HCl, RT) | stability (solid form) [13] | hygroscopic [13] | also measured
CC(C)COC(=O)Oc1cccc2[nH]cc(CCN(C)C)c12.O=CO [Compound 4d] | >200^a μL/min/mg protein and >200 μL/min/mg protein | Rapid degradation | 36.7 | Very low peak area for the first time point, instability suspected | > 167 | – | – | – | – | – | – | – | – | – | – | – | degradation rate among prodrugs ([2]; FaSSIF, 20 IU/mL esterase): fastest degradation; % prodrug remaining, measured after 1 min [2]: 7%; predicted half-life [2]: 1.2 s; predicted abs. [2]: 7.0 × 10^–77; half-life at 0.292 mM [2]: 15.6 ± 1.2 s; half-life at 5 mM ([3]; 1.0 M HCl): > 167 h; solubility [6]: > 90 µM
COC(=O)Oc1cccc2[nH]cc(CCN(C)C)c12.O=C(O)/C=C/C(=O)O [Compound 4e] | >200^a μL/min/mg protein and >200 μL/min/mg protein | Rapid degradation | 16.7 | Very low peak area for the first time point, instability suspected | > 167 | – | – | – | – | – | – | – | – | – | – | – | % prodrug remaining, measured after 1 min [2]: 60%; % prodrug remaining, no esterase 30 min ([2]; after 30 min with no esterase): 100%; predicted half-life [2]: 6 s; predicted abs. [2]: 4.1 × 10^–13; half-life at 0.292 mM [2]: 84.6 ± 19.2 s; half-life at 24 h, 5 mM ([3]; 1.0 M HCl): 150 h
CN(C)CCc1c[nH]c2cccc(OC(=O)OCc3ccccc3)c12.O=C(O)/C=C/C(=O)O.O=CO [Compound 4f] | >200^a μL/min/mg protein and >200 μL/min/mg protein | Rapid degradation | 11.7 | Very low peak area for the first time point, instability suspected | > 167 | – | – | – | – | – | – | – | – | – | – | – | % prodrug remaining, measured after 1 min [2]: 21%; predicted half-life [2]: 1.8 s; predicted abs. [2]: 6.6 × 10^–45; half-life at 0.292 mM [2]: 26.4 ± 2.4 s; half-life at 24 h, 5 mM ([3]; 1.0 M HCl): 100 h
CCCCCCCCCCC(=O)Oc1cccc2[nH]cc(CCN(C)C)c12.O=C(O)/C=C/C(=O)O [Compound 4j] | >200^a μL/min/mg protein and >200 μL/min/mg protein | Rapid degradation | 16.7 | Degradation without co-factor | > 167 | – | – | – | – | – | – | – | – | – | – | – | % found in microsome suspension [7]: 45%; half-life at 24 h, 5 mM ([3]; 1.0 M HCl): 21.7 h; microsomal CLint ([4]; human, human microsome suspension, both with and without the addition of NADPH, read-out: intrinsic clearance): > 200 µL/min/mg
CN(C)CCc1c[nH]c2cccc(OC(=O)N3CCCCC3)c12.O=C(O)/C=C/C(=O)O [Compound 4k] | <10/<10^b μL/min/mg protein and <10 μL/min/mg protein | – | – | – | > 167 | – | – | – | – | – | – | – | – | – | – | – | % found in microsome suspension [7]: 79%; half-life at 5 mM ([3]; 1.0 M HCl): > 167 h; half-life at 5 mM ([3]; 1.0 M NaHCO3): > 167 h; solubility [6]: > 90 µM
CN(C)CCc1c[nH]c2cccc(OB(O)O)c12.O=C(O)/C=C/C(=O)O [Compound 5] | >200^a μL/min/mg protein and >200 μL/min/mg protein | Rapid degradation | – | Very low peak area for the first time point, instability suspected | < 0.0833 | – | – | – | – | – | – | – | – | – | – | – | half-life at 5 mM ([3]; 1.0 M HCl): < 0.0833 h; half-life at 5 mM ([3]; 1.0 M NaHCO3): < 0.0833 h
CN(C)CCc1c[nH]c2cccc(O)c12.Cl [Compound 9a] | – | – | – | – | – | 333 | 51 | 8.33 | 0 | 100 | 0 | > 167 | 100 | clear | degrading during storage after only 3 days; also recorded: not very stable | highly hygroscopic and yes | half-life at 2 mg/mL freebase psilocin [10, 14]: > 167 h; half-life at 2 mg/mL freebase psilocin [11]: < 48 h; half-life at 144 h, 2 mg/mL freebase psilocin [11]: 50 h
CN(C)CCc1c[nH]c2cccc(O)c12.OB(O)O [Compound 9b] | – | – | – | – | – | – | 0 | – | 0 | 0 | 0 | – | 93 | clear | stable enough to store as a solid in the freezer for an extended period; also recorded: no change | no | half-life ([8]; 12900 lx, RT): <1000 ^b min; time to complete breakdown ([8]; 12900 lx, RT): ≤ 1 week; color (24 h) ([8]; 12900 lx, RT, water:acetonitrile 1:1): black; control sample stored in darkness ([8]; in air at RT for a week, dissolved salt): entirely degraded; half-life ([9]; 0.10 M NaOH, RT): 6.67 h; color ([9]; 0.10 M NaOH, after 24 h, RT): black; time to complete degradation ([10]; 0.30% H2O2): ≤ 3 h; half-life ([10]; 0.30% H2O2, RT): <1 h; color ([10]; 0.30% H2O2, after 24 h, RT): brown; half-life [11]: <11.7 h; time to complete degradation [11]: ≤ 24 h; color (24 h) ([11]; water:acetonitrile 1:1): black; half-life ([12]; 1.0 M HCl, RT): >10,000 min
CN(C)CCc1c[nH]c2cccc(O)c12.O=C(O)c1ccccc1 [Compound 9c] | – | – | – | – | – | 150 | 0 | 8.33 | 0 | 94 | 0 | > 167 | 100 | clear | stable enough to store as a solid in the freezer for an extended period; also recorded: no change | no | time to complete breakdown ([8]; 12900 lx, RT): ≤ 1 week; half-life at 2 mg/mL freebase psilocin [10, 14]: > 167 h; half-life at 2 mg/mL freebase psilocin [11]: < 48 h; half-life at 144 h, 2 mg/mL freebase psilocin [11]: 33.3 h
CN(C)CCc1c[nH]c2cccc(O)c12.O=P(O)(O)O [Compound 9e] | – | – | – | – | – | 333 | 33 | 5 | 0 | 83 | 0 | > 167 | 94 | clear | darkens after 1 week | no | half-life at 2 mg/mL freebase psilocin [10, 15]: > 24 h; half-life at 24 h, 2 mg/mL freebase psilocin [10, 14]: 13.3 h; half-life at 144 h, 2 mg/mL freebase psilocin [11]: 66.7 h
CN(C)CCc1c[nH]c2cccc(O)c12.O=C(O)C(F)(F)F [Compound 9f] | – | – | – | – | – | 167 | 22 | 15 | 0 | 78 | 0 | > 167 | 99 | clear | degrades within 3 days | highly hygroscopic and yes | half-life at 2 mg/mL freebase psilocin [10, 15]: > 24 h; half-life at 2 mg/mL freebase psilocin [10, 14]: 33.3 h; half-life at 2 mg/mL freebase psilocin [11]: < 48 h
